Target: PD-L1 His protein / PD-1 Fc protein (Homo sapiens, UniProt Q9NZQ7)
Assay: HTRF Assay (PD-1/PD-L1 interaction)
Type: binding
Details: PD-L1 His 6 nM, PD-1 Fc 6 nM
Method in brief: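 HTRF: PD-L1 His (6 nM final), compound (3-fold dilutions, 20 μM to 0.001 μM final) and PD-1 Fc (6 nM final) preincubated 15 min at room temperature. Anti-human IgG-XL665 and anti-6HIS Tb cryptate (mixed at 6.7 nM and 0.35 nM) then added for 1 h at room temperature before reading.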

Sequence of PD-L1 His protein / PD-1 Fc protein (Q9NZQ7 19-238 limits assumed): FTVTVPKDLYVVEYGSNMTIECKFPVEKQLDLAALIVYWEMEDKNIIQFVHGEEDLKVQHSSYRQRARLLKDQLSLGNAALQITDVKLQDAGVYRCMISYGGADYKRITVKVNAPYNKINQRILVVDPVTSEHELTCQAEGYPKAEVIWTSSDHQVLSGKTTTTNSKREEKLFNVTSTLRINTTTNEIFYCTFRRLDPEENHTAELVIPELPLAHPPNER

**Q.** With COc1nc(-c2cccc(-c3cccc(-c4cnc5cc(CNC[C@@H]6CCC(=O)N6)oc5c4)c3Cl)c2Cl)ccc1CNC[C@@H]1CCC(=O)N1 [Example 311, (S)-5-((((6-(2,2′-Dichloro-3′-(2-(((((S)-5-oxopyrrolidin-2-yl)methyl)amino)methyl)furo[3,2-b]pyridin-6-yl)-[1,1′-biphenyl]-3-yl)-2-methoxypyridin-3-yl)methyl)amino)methyl)pyrrolidin-2-one] as the compound, how does the IC50 read?
**A.** 5 nM

**Q.** How did the IC50 turn out when COc1nc(-c2cccc(-c3cccc(-c4cc(F)c5c(c4)CCN(CCNC[C@@H]4CCC(=O)N4)C5=O)c3Cl)c2Cl)ccc1CNC[C@@H]1CCC(=O)N1 [Example 400, 6-(2,2′-Dichloro-3′-(6-methoxy-5-(((((S)-5-oxopyrrolidin-2-yl)methyl)amino)methyl)pyridin-2-yl)-[1,1′-biphenyl]-3-yl)-8-fluoro-2-(2-((((S)-5-oxopyrrolidin-2-yl)methyl)amino)ethyl)-3,4-dihydroisoquinolin-1(2H)-one] was run?
**A.** 550 nM

**Q.** With COc1nc(-c2cccc(-c3cccc(-c4cc5c(cn4)C(=O)N(CCNC[C@@H]4CCC(=O)N4)C5)c3Cl)c2Cl)ccc1CNC[C@@H]1CCC(=O)N1 [Example 467, 6-(2,2′-Dichloro-3′-(6-methoxy-5-(((((S)-5-oxopyrrolidin-2-yl)methyl)amino)methyl)pyridin-2-yl)-[1,1′-biphenyl]-3-yl)-2-(2-((((S)-5-oxopyrrolidin-2-yl)methyl)amino)ethyl)-1H-pyrrolo[3,4-c]pyridin-3(2H)-one] as the compound, how does the IC50 read?
**A.** 0.1 nM

**Q.** Which IC50 does the source give for COc1nc(-c2cccc(-c3cccc(-c4cc5c(=O)n(C)c(CNCC6CC(F)(F)C(=O)N6)nn5c4)c3Cl)c2Cl)ccc1CNC[C@@H]1CCC(=O)N1 (mixture of isomers) [Example 450, 6-[2-Chloro-3-[2-chloro-3-[6-methoxy-5-[[[rac-(2S)-5-oxopyrrolidin-2-yl]methylamino]methyl]-2-pyridyl]phenyl]phenyl]-2-[[(4,4-difluoro-5-oxo-pyrrolidin-2-yl)methylamino]methyl]-3-methyl-pyrrolo[2,1-f][1,2,4]triazin-4-one] here?
**A.** 12 nM

**Q.** For COc1nc(-c2cccc(-c3cccc(-c4ccn5c(=O)c(CNCC6(CO)COC6)cnc5c4)c3Cl)c2Cl)ccc1CNC[C@@H]1CCC(=O)N1 [Example 244, (S)-8-(2,2′-dichloro-3′-(6-methoxy-5-((((5-oxopyrrolidin-2-yl)methyl)amino)-methyl)-pyridin-2-yl)-[1,1′-biphenyl]-3-yl)-3-((((3-(hydroxymethyl)oxetan-3-yl)-methyl)-amino)-methyl)-4H-pyrido[1,2-a]pyrimidin-4-one], which IC50 is on record?
**A.** 0.6 nM

**Q.** COC(=O)CNCc1ccc(-c2cccc(-c3cccc(-c4ccn5c(=O)c(CNC[C@@H]6CCC(=O)N6)cnc5c4)c3Cl)c2Cl)nc1OC [Example 124, Methyl (S)-((6-(2,2′-dichloro-3′-(4-oxo-3-((((5-oxopyrrolidin-2-yl)methyl)amino)methyl)-4H-pyrido[1,2-a]pyrimidin-8-yl)-[1,1′-biphenyl]-3-yl)-2-methoxypyridin-3-yl)methyl)glycinate] was tested. Which IC50 did it give?
**A.** 3.8 nM

**Q.** COc1nc(-c2cccc(-c3cccc(-c4ccn5c(=O)c(CN(C)CCCO)cnc5c4)c3Cl)c2Cl)ccc1CNC[C@@H]1CCC(=O)N1 [Example 317, (S)-8-(2,2′-Dichloro-3′-(6-methoxy-5-((((5-oxopyrrolidin-2-yl)methyl)amino)methyl)pyridin-2-yl)-[1,1′-biphenyl]-3-yl)-3-(((3-hydroxypropyl)(methyl)amino)methyl)-4H-pyrido[1,2-a]pyrimidin-4-one] was tested. Which IC50 did it give?
**A.** 0.2 nM

**Q.** How did the IC50 turn out when COc1nc(-c2cccc(-c3cccc(-c4ccn5c(=O)c(C6=NCC(O)CN6)cnc5c4)c3Cl)c2Cl)ccc1CNC[C@@H]1CCC(=O)N1 (stereo partly drawn) [Example 161, 8-(2,2′-Dichloro-3′-(6-methoxy-5-(((((S)-5-oxopyrrolidin-2-yl)methyl)amino)methyl)pyridin-2-yl)-[1,1′-biphenyl]-3-yl)-3-(5-hydroxy-1,4,5,6-tetrahydropyrimidin-2-yl)-4H-pyrido[1,2-a]pyrimidin-4-one] was run?
**A.** 0.1 nM

**Q.** COc1nc(-c2cccc(-c3cccc(-c4ccn5c(=O)c(CN6CC[C@H](C(=O)O)C6)cnc5c4)c3Cl)c2Cl)ccc1CNCCO [Example 172, (S)-1-((8-(2,2′-Dichloro-3′-(5-(((2-hydroxyethyl)amino)methyl)-6-methoxypyridin-2-yl)-[1,1′-biphenyl]-3-yl)-4-oxo-4H-pyrido[1,2-a]pyrimidin-3-yl)methyl)pyrrolidine-3-carboxylic acid] was tested. Which IC50 did it give?
**A.** 0.3 nM

**Q.** For COc1nc(-c2cccc(-c3cccc(-c4ccn5c(=O)c(CNCCCC(=O)O)cnc5c4)c3Cl)c2Cl)ccc1CNC[C@@H]1CCC(=O)N1 [Example 160, (S)-4-(((8-(2,2′-Dichloro-3′-(6-methoxy-5-((((5-oxopyrrolidin-2-yl)methyl)amino)methyl)pyridin-2-yl)-[1,1′-biphenyl]-3-yl)-4-oxo-4H-pyrido[1,2-a]pyrimidin-3-yl)methyl)amino)butanoic acid], which IC50 is on record?
**A.** 0.7 nM

**Q.** Which IC50 does the source give for Cc1c(COc2cc(OCc3cncc(C#N)c3)c(CNC[C@@H]3CCC(=O)N3)cc2Cl)cccc1-c1cccc(-c2ccn3c(=O)c(CNC[C@@H]4CCC(=O)N4)ccc3c2)c1C [Example 24, 5-((4-Chloro-5-((2,2′-dimethyl-3′-(4-oxo-3-(((((S)-5-oxopyrrolidin-2-yl)methyl)amino)methyl)-4H-quinolizin-8-yl)-[1,1′-biphenyl]-3-yl)methoxy)-2-(((((S)-5-oxopyrrolidin-2-yl)methyl)amino)methyl)phenoxy)methyl)nicotinonitrile] here?
**A.** 0.5 nM

**Q.** How did the IC50 turn out when COC(=O)C[C@H](O)CNCc1nn2cc(-c3cccc(-c4cccc(-c5ccc(CNC[C@@H]6CCC(=O)N6)c(OC)n5)c4Cl)c3Cl)cc2c(=O)n1C [Example 489, Methyl (3S)-4-[[6-[2-chloro-3-[2-chloro-3-[6-methoxy-5-[[[(2S)-5-oxopyrrolidin-2-yl]methylamino]methyl]-2-pyridyl]phenyl]phenyl]-3-methyl-4-oxo-pyrrolo[2,1-f][1,2,4]triazin-2-yl]methylamino]-3-hydroxy-butanoate] was run?
**A.** 1500 nM

**Q.** Which IC50 does the source give for COc1nc(-c2cccc(-c3cccc(-c4cc(F)c5c(c4)CCN(C[C@@H]4CCC(=O)N4)C5)c3Cl)c2Cl)ccc1CNC[C@@H]1CCC(=O)N1 [Example 425, (S)-5-((6-(2,2′-Dichloro-3′-(6-methoxy-5-(((((S)-5-oxopyrrolidin-2-yl)methyl)-amino)-methyl)-pyridin-2-yl)-[1,1′-biphenyl]-3-yl)-8-fluoro-3,4-dihydroisoquinolin-2(1H)-yl)methyl)pyrrolidin-2-one] here?
**A.** 8.3 nM

**Q.** For COC(=O)C1CN(Cc2cnc3cc(-c4cccc(-c5cccc(-c6ccc(CNC[C@@H]7CCC(=O)N7)c(OC)n6)c5Cl)c4Cl)ccn3c2=O)C1 [Example 162, (S)-Methyl 1-((8-(2,2′-dichloro-3′-(6-methoxy-5-((((5-oxopyrrolidin-2-yl)methyl)amino)methyl)pyridin-2-yl)-[1,1′-biphenyl]-3-yl)-4-oxo-4H-pyrido[1,2-a]pyrimidin-3-yl)methyl)azetidine-3-carboxylate], which IC50 is on record?
**A.** 3.8 nM

**Q.** How did the IC50 turn out when COc1nc(-c2cccc(-c3cccc(-c4ccn5c(=O)c(CN[C@@H](CO)C(=O)O)cnc5c4)c3Cl)c2Cl)ccc1CNCCO [Example 191, ((8-(2,2′-Dichloro-3′-(5-(((2-hydroxyethyl)amino)methyl)-6-methoxypyridin-2-yl)-[1,1′-biphenyl]-3-yl)-4-oxo-4H-pyrido[1,2-a]pyrimidin-3-yl)methyl)-L-serine] was run?
**A.** 0.1 nM

Source: patent US20230143612A1 (Arbutus Biopharma Corporation, priority 2020, published 2023)
